Measured values from patent US9849185B2, “Benzoic acid, benzoic acid derivatives and heteroaryl carboxylic acid conjugates of hydromorphone, prodrugs, methods of making and use thereof” (priority 2011, dated 2017).

How the values were obtained:
[1] = Oral pharmacokinetic study in rats (released hydromorphone in plasma); conditions: rat; for AUC of hydromorphone released from the conjugate / Cmax of hydromorphone released from the conjugate / Tmax of hydromorphone released from the conjugate: oral solution, dose equimolar to 2.0 mg/kg hydromorphone, plasma
[2] = Intranasal pharmacokinetic study in rats; conditions: rat, equimolar to 2.0 mg/kg hydromorphone
Protocol: The intranasal studies were performed at doses equimolar to 2.0 mg/kg of hydromorphone.

[3] = Tamper resistance study: extraction methods, hydromorphone release by HPLC; conditions: for amount of hydromorphone released from 3,6-di-aspirin-HM: %-AUC by HPLC
Source text: Certain prodrug conjugates of the present technology were exposed to various commonly applied “extraction methods” to test for hydrolysis and/or decomposition of the prodrug.

[4] = Intravenous pharmacokinetic study in rats; conditions: rat, 0.20 mg/kg
GI transit = experiment: Validated rat gastrointestinal (GI) motility study; conditions: oral, equimolar dose, result in words
[5] = oral, equimolar to 2.0 mg/kg hydromorphone, result in words

Compound: CN1CCC23c4c5ccc(O)c4OC2C(OC(=O)c2ccccc2O)=CCC3C1C5 (stereo not drawn) [6-o-Salicylate-HM, 6-o-salicylate-hydromorphone]
- AUC of hydromorphone released from the conjugate [1]: 33.3 ng·h/mL
- Cmax of hydromorphone released from the conjugate [1]: 14.1 ng/mL
- Tmax of hydromorphone released from the conjugate [1]: 15 min
- Cmax value of released hydromorphone compared to unconjugated hydromorphone [1, 5]: lower

Compound: CN1CCC23c4c5ccc(OC(=O)c6ccncc6)c4OC2C(=O)CCC3C1C5 (stereo not drawn) [3-Isoniacin-HM, 3-isoniacin-hydromorphone]
- AUC of hydromorphone released from the conjugate [1]: 25.1 ng·h/mL
- Cmax of hydromorphone released from the conjugate [1]: 18.5 ng/mL
- Tmax of hydromorphone released from the conjugate [1]: 15 min
- Cmax value of released hydromorphone compared to unconjugated hydromorphone [1, 5]: lower

Compound: CN1CCC23c4c5ccc(OC(=O)c6ccccc6)c4OC2C(=O)CCC3C1C5 (stereo not drawn) [3-Benzoate-HM, 3-benzoate-hydromorphone]
- AUC of hydromorphone released from the conjugate [1]: 41.2 ng·h/mL
- Cmax of hydromorphone released from the conjugate [1]: 19.8 ng/mL
- Tmax of hydromorphone released from the conjugate [1]: 30 min
- hydromorphone plasma concentrations compared to unconjugated hydromorphone [1, 5]: lower at all time points

Compound: CN1CCC23c4c5ccc(OC(=O)c6ccc(O)cc6)c4OC2C(=O)CCC3C1C5 (stereo not drawn) [3-p-Salicylic-HM, 3-p-salicylic-hydromorphone]
- AUC of hydromorphone released from the conjugate [1]: 31.4 ng·h/mL
- Cmax of hydromorphone released from the conjugate [1]: 17.2 ng/mL
- Tmax of hydromorphone released from the conjugate [1]: 15 min
- hydromorphone plasma concentrations compared to unconjugated hydromorphone [1, 5]: lower at all time points

Compound: CN1CCC23c4c5ccc(OC(=O)c6ccccc6)c4OC2C(OC(=O)c2ccccc2)=CCC3C1C5 (stereo not drawn) [3,6-di-Benzoate-HM, 3,6-di-benzoate-hydromorphone]
- AUC of hydromorphone released from the conjugate [1]: 30.1 ng·h/mL
- Cmax of hydromorphone released from the conjugate [1]: 11.3 ng/mL
- Tmax of hydromorphone released from the conjugate [1]: 15 min
- hydromorphone plasma concentrations compared to unconjugated hydromorphone [1, 5]: lower at all time points

Compound: CC(=O)Oc1ccccc1C(=O)Oc1ccc2c3c1OC1C(=O)CCC4C(C2)N(C)CCC314 (stereo not drawn) [Conjugate 3-Aspirin-HM, 3-aspirin-hydromorphone]
- AUC of hydromorphone released from the conjugate [1]: 55.9 ng·h/mL
- Cmax of hydromorphone released from the conjugate [1]: 44.3 ng/mL
- Tmax of hydromorphone released from the conjugate [1]: 15 min
- hydromorphone plasma concentrations compared to unconjugated hydromorphone [1, 5]: comparable

Compound: CN1CCC23c4c5ccc(OC(=O)C=Cc6ccccc6)c4OC2C(=O)CCC3C1C5 (stereo not drawn) [3-Cinnamate-HM, 3-cinnamate-hydromorphone]
- AUC of hydromorphone released from the conjugate [1]: 25.3 ng·h/mL
- Cmax of hydromorphone released from the conjugate [1]: 28.3 ng/mL
- Tmax of hydromorphone released from the conjugate [1]: 15 min
- hydromorphone plasma concentrations compared to unconjugated hydromorphone [1, 5]: lower at all time points

Compound: CC(=O)Oc1ccccc1C(=O)OC1=CC[C@H]2[C@H]3Cc4ccc(OC(=O)c5ccccc5OC(C)=O)c5c4[C@@]2(CCN3C)[C@H]1O5 [3,6-di-Aspirin-HM, 3,6-di-aspirin-hydromorphone]
- AUC as % of unconjugated hydromorphone [2]: 17%
- Cmax as % of unconjugated hydromorphone [2]: 20%
- plasma concentrations of hydromorphone after intranasal administration compared to the parent drug ([2]; result in words): significantly reduced
- amount of hydromorphone released from 3,6-di-aspirin-HM ([3]; 1N HCl, ambient temperature, 30 min.): 0%
- amount of hydromorphone released from 3,6-di-aspirin-HM ([3]; 1N HCl, ambient temperature, 60 min.): 0%
- amount of hydromorphone released from 3,6-di-aspirin-HM ([3]; 1N NaOH, ambient temperature, 30 min.): 1%
- amount of hydromorphone released from 3,6-di-aspirin-HM ([3]; 1N NaOH, ambient temperature, 60 min.): 1%
- amount of hydromorphone released from 3,6-di-aspirin-HM ([3]; 4N NaOH, ambient temperature, 30 min.): 1%
- amount of hydromorphone released from 3,6-di-aspirin-HM ([3]; 4N NaOH, ambient temperature, 60 min.): 6%
- amount of hydromorphone released from 3,6-di-aspirin-HM ([3]; 5% Acetic acid, ambient temperature, 30 min.): 0%
- amount of hydromorphone released from 3,6-di-aspirin-HM ([3]; 5% Acetic acid, ambient temperature, 60 min.): 0%
- amount of hydromorphone released from 3,6-di-aspirin-HM ([3]; Glacial acetic acid, ambient temperature, 30 min.): 0%
- amount of hydromorphone released from 3,6-di-aspirin-HM ([3]; Glacial acetic acid, ambient temperature, 60 min.): 0%
- amount of hydromorphone released from 3,6-di-aspirin-HM ([3]; Sat. NaHCO3, ambient temperature, 30 min.): 0%
- amount of hydromorphone released from 3,6-di-aspirin-HM ([3]; Sat. NaHCO3, ambient temperature, 60 min.): 0%
- amount of hydromorphone released from 3,6-di-aspirin-HM ([3]; Water, ambient temperature, 30 min.): 0%
- amount of hydromorphone released from 3,6-di-aspirin-HM ([3]; Water, ambient temperature, 60 min.): 0%
- chemical stability under commonly applied "extraction methods" ([3]; result in words): chemically stable
- outcome of solvent extraction from formulation ([3]; result in words): only yielded inactive prodrug
- AUC as % of unconjugated hydromorphone [4]: 6%
- Cmax as % of unconjugated hydromorphone [4]: 3%
- plasma concentrations of hydromorphone after intravenous administration compared to unconjugated hydromorphone ([4]; result in words): significantly lower
- reduction of GI transit compared to hydromorphone hydrochloride (GI transit): reduces GI transit to a lesser extent than hydromorphone hydrochloride
- AUC of hydromorphone released from the conjugate [1]: 82.4 ng·h/mL
- Cmax of hydromorphone released from the conjugate [1]: 36.5 ng/mL
- Tmax of hydromorphone released from the conjugate [1]: 15 min
- hydromorphone plasma concentrations compared to unconjugated hydromorphone [1, 5]: comparable

Compound: CN1CC[C@]23c4c5ccc(OC(=O)c6ccccc6Nc6ccccc6)c4OC2C(=O)CC[C@H]3[C@H]1C5 (stereo partly drawn) [3-Fenamate-HM, 3-fenamate-hydromorphone]
- AUC of hydromorphone released from the conjugate [1]: 44.6 ng·h/mL
- Cmax of hydromorphone released from the conjugate [1]: 30.6 ng/mL
- Tmax of hydromorphone released from the conjugate [1]: 15 min
- hydromorphone plasma concentrations compared to unconjugated hydromorphone [1, 5]: elevated for the first hour after oral administration and then decreased quickly

Compound: COc1ccc2cc(C(C)C(=O)OC3=CCC4C5Cc6ccc(O)c7c6C4(CCN5C)C3O7)ccc2c1 (stereo not drawn) [6-Naproxen-HM, 6-naproxen-hydromorphone]
- AUC of hydromorphone released from the conjugate [1]: 31.6 ng·h/mL
- Cmax of hydromorphone released from the conjugate [1]: 19.1 ng/mL
- Tmax of hydromorphone released from the conjugate [1]: 15 min
- overall exposure after oral administration compared to the parent drug [1, 5]: reduced significantly
